In US20150174021A1, “COSMETIC COMPOSITION COMPRISING BENZYLSULFONYL-D-SER-HOMOPHE-(4-AMIDINO-BENZYLAMIDE) AND A POLYALCOHOL” (DSM IP ASSETS B.V., priority 2012, published 2015):
Like-named read-outs stand apart in the source and are kept apart here.

Legend:
human plasmin = human plasmin (Homo sapiens, UniProt P00747); assay: Inhibition of human plasmin, chromogenic substrate Tos-Gly-Pro-Lys-pNA, Ki according to Dixon; format: biochemical
Experimental: The measurements were carried out on a microplate reader at 25′C.
(§1) The measurements were carried out on a microplate reader at 25° C. […] The Ki-values for the respective inhibitors were calculated according to Dixon34 using a linear regression proaram. Bz-βAla-Gly-Arg-pNA was used as the substrate for human uPA and Tos-Gly-Pro-Lys-pNA for human plasmin.

human uPA = human uPA (Homo sapiens, UniProt P00749); assay: Inhibition of human uPA (urokinase), chromogenic substrate Bz-βAla-Gly-Arg-pNA, Ki according to Dixon; format: biochemical
Experimental: The measurements were carried out on a microplate reader at 25° C.
as §1

[1] = comparative inhibitor compositions, 0.1% inhibitor and 99.9% of glycerine 86%, 25° C., pH 8.0, Dixon, read-out: Ki for plasmin inhibition

Sequence of human plasmin (P00747 581-810 limits assumed): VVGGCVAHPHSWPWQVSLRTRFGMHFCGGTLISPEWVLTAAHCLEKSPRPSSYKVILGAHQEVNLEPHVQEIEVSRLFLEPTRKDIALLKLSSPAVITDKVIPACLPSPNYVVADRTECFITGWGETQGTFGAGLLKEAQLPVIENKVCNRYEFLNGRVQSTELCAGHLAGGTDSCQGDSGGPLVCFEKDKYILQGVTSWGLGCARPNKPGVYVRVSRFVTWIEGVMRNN
Sequence of human plasmin (P00747 97-580 partner limits assumed): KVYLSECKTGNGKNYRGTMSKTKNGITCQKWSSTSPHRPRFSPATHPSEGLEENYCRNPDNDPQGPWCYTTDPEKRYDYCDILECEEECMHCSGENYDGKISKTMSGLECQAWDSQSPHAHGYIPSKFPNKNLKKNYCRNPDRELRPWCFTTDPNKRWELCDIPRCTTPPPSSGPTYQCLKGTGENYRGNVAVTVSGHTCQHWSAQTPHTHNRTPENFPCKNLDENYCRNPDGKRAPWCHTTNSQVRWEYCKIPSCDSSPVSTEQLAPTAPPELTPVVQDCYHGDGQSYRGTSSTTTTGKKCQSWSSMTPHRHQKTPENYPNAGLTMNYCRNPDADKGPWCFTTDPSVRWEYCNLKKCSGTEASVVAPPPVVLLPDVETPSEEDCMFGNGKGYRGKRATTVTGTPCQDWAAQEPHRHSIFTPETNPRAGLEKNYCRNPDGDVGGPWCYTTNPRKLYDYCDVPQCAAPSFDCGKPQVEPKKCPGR

SMILES	Ki (human plasmin)	Ki for plasmin inhibition compared to 3 other 4-amidino benzylamines (human plasmin; compared to the Gly, Ala and Lys analogues of WO2009/026949)	Ki (human uPA)	Ki (human plasmin; [1])	Ki (human uPA; comparative inhibitor compositions, 0.1% inhibitor and 99.9% of glycerine 86%, 25° C., pH 8.0, Dixon, read-out: Ki for uPA inhibition)
N=C(N)c1ccc(CNC(=O)C(CCc2ccccc2)NC(=O)C(CO)NS(=O)(=O)Cc2ccccc2)cc1 [benzylsulfonyl-D-Ser-homoPhe-(4-amidino-benzylamide)]	36 nM	an order of magnitude better	28 nM	–	–
N=C(N)c1ccc(CNC(=O)CNC(=O)[C@@H](CO)NS(=O)(=O)Cc2ccccc2)cc1 [Benzylsulfonyl-D-Ser-Gly-(4-amidino-benzylamide)]	–	–	–	11000 nM	–
N=C(N)c1ccc(CNC(=O)C(CCCCN)NC(=O)C(CO)NS(=O)(=O)Cc2ccccc2)cc1 [Benzylsulfonyl-D-Ser-Lys-(4-amidino-benzylamide), reference compound]	–	–	–	360 nM	24 nM
CC(NC(=O)C(CO)NS(=O)(=O)Cc1ccccc1)C(=O)NCc1ccc(C(=N)N)cc1 [Benzylsulfonyl-D-Ser-Ala-(4-amidino-benzylamide)]	–	–	–	540 nM	–
